# Values quoted from earlier work in US5183829A, “Oral liquid compositions of non-steroidal anti-inflammatory drugs” (priority 1991, dated 1993).
# Conditions: enteric coated tablet vs aqueous solution
smiles,measurement,value
O=C(O)Cc1ccccc1Nc1c(Cl)cccc1Cl [sodium diclofenac],oral bioavailability,more bioavailable orally from an enteric coated tablet than from an aqueous solution
